From PMC7375020 (Frontiers in Cell and Developmental Biology, 2020)
Marks after values point to notes of the source that are not given here. Values belong to the compound of their own block, whether it stands above or below them.

What was measured:
MDA-MB-231 xenograft = type: in vivo; settings: oral 30 mg/kg/day
Protocol: Ten days after injection, tumors were palpable and mice were randomized into treatment and control groups (six mice per group). […] Subcutaneous tumors were measured with a vernier caliper every 3 days. Tumor volumes (V) were estimated using the equation (V = ab^2/2, where a and b are the longest and shortest diameter, respectively). The body weight of the mice was also monitored regularly. At the end of the experimental period, mice were sacrificed and the tumor tissues were dissected and weighed. Tumor growth inhibition (TGI) and the relative increment ratio (T/C) were calculated at the end of treatment to reveal the antitumor effects in tumor weight and tumor volume, respectively.
• TGI = (the mean tumor weight of control group – the mean tumor weight of treated group)/the mean tumor weight of control group. • T/C = the mean RTV of treated group (T)/the mean RTV of blank control group (C).
where the relative tumor volume (RTV) is Vt/V0 (Vt is the tumor volume measured at the end of treatment; V0 is the tumor volume measured at the beginning of the treatment).
All the obtained data were used to evaluate the antitumor potency and toxicity of compounds. Data were analyzed by Student’s one-tailed t-test.

MCF-7 = assay: In vitro antiproliferative assay (MTT), MCF-7; type: cell-based; settings: Homo sapiens, MCF7, 72 h
Protocol: (§1) The cell proliferation assay was determined by the MTT (3-[4,5-dimethyl-2-thiazolyl]-2,5-diphenyl-2H-tetrazolium bromide) method. Briefly, cells were passaged the day before dosing into a 96-well plate, allowed to grow for 12 h, and then treated with different concentrations of compound for 72 h. A 0.5% MTT solution was added to each well. After incubation for another 4 h, formazan formed from MTT was extracted by adding 200 μL of DMSO. Absorbance was then determined using a microplate reader at 570 nm.

HDAC6 = molecular target: T1, HDAC6 (Homo sapiens, UniProt Q9UBN7); assay: In vitro HDAC inhibition fluorescent assay, HDAC6; type: biochemical; settings: Boc-Lys(acetyl)-AMC substrate
T1 sequence (Q9UBN7 1-1215): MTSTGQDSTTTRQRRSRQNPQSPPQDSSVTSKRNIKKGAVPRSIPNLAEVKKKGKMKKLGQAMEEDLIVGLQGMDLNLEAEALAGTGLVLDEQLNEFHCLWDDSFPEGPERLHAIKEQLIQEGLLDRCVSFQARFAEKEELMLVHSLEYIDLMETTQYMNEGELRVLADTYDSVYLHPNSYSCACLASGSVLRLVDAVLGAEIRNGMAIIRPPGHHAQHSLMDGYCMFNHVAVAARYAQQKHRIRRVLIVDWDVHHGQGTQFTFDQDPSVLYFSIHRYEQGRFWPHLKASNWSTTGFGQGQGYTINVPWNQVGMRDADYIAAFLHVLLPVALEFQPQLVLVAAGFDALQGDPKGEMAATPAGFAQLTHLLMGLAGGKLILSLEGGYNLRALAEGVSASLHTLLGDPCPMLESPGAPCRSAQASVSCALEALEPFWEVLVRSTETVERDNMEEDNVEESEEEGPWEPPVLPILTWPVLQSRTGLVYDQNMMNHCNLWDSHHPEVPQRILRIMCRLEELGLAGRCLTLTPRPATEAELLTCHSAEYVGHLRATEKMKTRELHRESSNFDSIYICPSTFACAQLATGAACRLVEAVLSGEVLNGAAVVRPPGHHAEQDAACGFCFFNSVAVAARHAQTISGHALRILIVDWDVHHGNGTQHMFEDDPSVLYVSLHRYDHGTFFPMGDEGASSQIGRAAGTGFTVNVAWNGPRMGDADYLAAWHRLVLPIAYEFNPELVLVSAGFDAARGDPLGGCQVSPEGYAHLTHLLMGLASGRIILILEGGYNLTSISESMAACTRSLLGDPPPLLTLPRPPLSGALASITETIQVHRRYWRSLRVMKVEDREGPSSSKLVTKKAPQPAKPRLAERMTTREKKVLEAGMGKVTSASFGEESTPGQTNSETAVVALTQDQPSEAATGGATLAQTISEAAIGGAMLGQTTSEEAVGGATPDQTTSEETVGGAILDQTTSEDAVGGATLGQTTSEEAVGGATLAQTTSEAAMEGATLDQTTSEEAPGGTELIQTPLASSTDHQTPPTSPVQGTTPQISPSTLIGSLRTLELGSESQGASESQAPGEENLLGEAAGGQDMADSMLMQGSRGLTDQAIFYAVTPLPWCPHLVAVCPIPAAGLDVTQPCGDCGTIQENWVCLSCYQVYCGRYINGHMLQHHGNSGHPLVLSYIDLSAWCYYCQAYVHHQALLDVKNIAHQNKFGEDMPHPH
Protocol: (§2) An aliquot of 10 μL of enzyme solution (HeLa cell nuclear extract, HDAC2, HDAC6, or HDAC8) was mixed with different concentrations of test compound (50 μL). The mixture was incubated at 37°C for 5 min, followed by the addition of 40 μL of fluorogenic substrate tert-butyl (S)-(6-acetamido- 1-((4-methyl-2-oxo-2H-chromen-7-yl)amino)-1-oxohexan-2-yl) carbamate (Boc-Lys(acetyl)-AMC) for HeLa cell nuclear extracts, HDAC2, and HDAC6; tert-butyl (S)-(1-((4-methyl- 2-oxo-2H-chromen-7-yl)amino)-1-oxo-6-(2,2,2-trifluoroacetam ido)hexan-2-yl)carbamate (Boc-Lys(trifluoroacetyl)-AMC) for HDAC8). After incubation at 37°C for 30 min, the mixture was quenched by the addition of 100 μL of developer containing trypsin and trichostatin A. Following incubation at 37°C for 20 min, the fluorescence intensity was measured using a microplate reader at excitation and emission wavelengths of 390 and 460 nm, respectively. The inhibition ratios were calculated from the fluorescence intensity readout of tested wells relative to those of control wells, and the half maximal inhibitory concentration (IC50) values were calculated using the prism non-linear curve-fitting method.

KG-1 = assay: In vitro antiproliferative assay (MTT), KG-1; type: cell-based; settings: Homo sapiens, 72 h
Protocol: as §1

[1] = system: acetyl-histone H4 and acetyl-α-tubulin in MDA-MB-231 cells; assay: Western blot analysis of intracellular HDAC inhibition; type: cell-based, human; settings: for level of acetyl-histone H4 / level of acetyl-α-tubulin: 3 h, immunoblot
Protocol: The MDA-MB-231 cells were treated with compounds or DMSO for a specified period of time. Then the cells were washed twice with cold phosphate-buffered saline (PBS) and lysed in ice-cold radioimmunoprecipitation assay (RIPA) buffer. Lysates were cleared by centrifugation. Protein concentrations were determined using the bicinchoninic acid assay. Equal amounts of cell extracts were then resolved by sodium dodecyl sulfate–polyacrylamide gel electrophoresis, transferred to nitrocellulose membranes, and probed with acetyl-histone H4 antibody (intracellular substrate of HDAC1 and HDAC2), acetyl-α-tubulin antibody (intracellular substrate of HDAC6), and β-actin antibody (used as a loading control), respectively. Blots were detected using an enhanced chemiluminescence system.

[2] = In vitro metabolic stability assay in human liver microsomes; type: in vitro ADME; settings: with NADPH, 37°C, LC-MS/MS, read-out: t1/2 Human liver microsomes
Protocol: (§3) Human liver microsomes containing compound 1 were incubated with NADPH at 37°C. At the specific time points, samples were added to acetonitrile to terminate the reaction, then subjected to vortex mixing for 5 min and stored in a freezer at –80°C. Before analysis, the samples were centrifuged. The remainder of 1 in the supernatants was analyzed by LC-MS/MS. The t1/2(half–time) values were calculated using the equation t1/2 = −0.693/k, where k is the slope found in the linear fit of the natural logarithm of the fraction remaining of compound 1 versus incubation time.

HDAC2 = HDAC2 (Homo sapiens, UniProt Q92769); assay: In vitro HDAC inhibition fluorescent assay, HDAC2; type: biochemical; settings: Boc-Lys(acetyl)-AMC substrate
HDAC2, sequence (Q92769 whole entry, species assumed): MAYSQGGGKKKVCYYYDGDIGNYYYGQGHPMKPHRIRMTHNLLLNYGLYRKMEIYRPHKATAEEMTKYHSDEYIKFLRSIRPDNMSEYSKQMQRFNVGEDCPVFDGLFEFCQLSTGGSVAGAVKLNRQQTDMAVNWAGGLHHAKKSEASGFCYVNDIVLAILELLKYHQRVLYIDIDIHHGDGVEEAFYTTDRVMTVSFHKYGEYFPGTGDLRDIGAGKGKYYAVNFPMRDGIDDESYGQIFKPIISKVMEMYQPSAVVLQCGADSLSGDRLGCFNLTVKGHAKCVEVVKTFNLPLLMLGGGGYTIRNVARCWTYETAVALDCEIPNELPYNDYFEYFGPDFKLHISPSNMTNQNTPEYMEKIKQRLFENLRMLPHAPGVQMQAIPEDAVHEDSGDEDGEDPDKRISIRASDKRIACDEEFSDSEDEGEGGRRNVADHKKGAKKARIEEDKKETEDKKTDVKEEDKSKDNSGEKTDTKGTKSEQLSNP
Protocol: as §2

SK-N-BE(2) = assay: In vitro antiproliferative assay (MTT), SK-N-BE(2); type: cell-based; settings: Homo sapiens, SKNBE2, 72 h
Protocol: as §1

HEL = assay: In vitro antiproliferative assay (MTT), HEL; type: cell-based; settings: Homo sapiens, 72 h
Protocol: as §1

MOLT-4 = assay: In vitro antiproliferative assay (MTT), MOLT-4; type: cell-based; settings: Homo sapiens, 72 h
Protocol: as §1

[3] = In vitro metabolic stability assay in human plasma; type: in vitro ADME; settings: 37°C, LC-MS/MS, read-out: t1/2 Human plasma
Protocol: as §3, with “Human plasma samples” for “Human liver microsomes”, “incubated” for “incubated with NADPH”, “by liquid chromatography with tandem mass spectrometry (LC-MS/MS).” for “by LC-MS/MS.”, “equation t1/2(half–time)” for “equation t1/2”

[4] = system: HeLa cell nuclear extract; assay: In vitro HDAC inhibition fluorescent assay, total HDAC; type: biochemical; settings: Boc-Lys(acetyl)-AMC substrate
Protocol: as §2

MDA-MB-231 = assay: In vitro antiproliferative assay (MTT), MDA-MB-231; type: cell-based; settings: Homo sapiens, 72 h
Protocol: as §1

[5] = system: tested human cancer cell lines; assay: In vitro antiproliferative assay (MTT), all tested tumor cell lines; type: cell-based
Protocol: as §1, with “All cell lines were maintained in Roswell Park Memorial Institute (RPMI) 1640 medium containing 10% fetal bovine serum at 37°C in a 5% CO2 humidified incubator. The” for “The”

HDAC8 = molecular target: T2, HDAC8 (Homo sapiens, UniProt Q9BY41); assay: In vitro HDAC inhibition fluorescent assay, HDAC8; type: biochemical; settings: Boc-Lys(trifluoroacetyl)-AMC substrate
T2 sequence (Q9BY41 1-377): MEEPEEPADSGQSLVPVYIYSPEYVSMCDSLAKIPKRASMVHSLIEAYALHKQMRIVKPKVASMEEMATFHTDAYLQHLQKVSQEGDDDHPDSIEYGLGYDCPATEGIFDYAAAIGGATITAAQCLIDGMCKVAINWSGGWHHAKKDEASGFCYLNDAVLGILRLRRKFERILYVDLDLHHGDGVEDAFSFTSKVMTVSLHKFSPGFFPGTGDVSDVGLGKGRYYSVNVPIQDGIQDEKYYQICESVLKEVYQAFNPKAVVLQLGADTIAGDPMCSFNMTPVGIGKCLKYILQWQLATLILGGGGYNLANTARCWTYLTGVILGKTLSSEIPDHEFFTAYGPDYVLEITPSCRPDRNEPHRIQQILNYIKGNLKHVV
Protocol: as §2

PC-3 = assay: In vitro antiproliferative assay (MTT), PC-3; type: cell-based; settings: Homo sapiens, 72 h
Protocol: as §1

[6] = parameters: method as in Konsoula and Jung, 2008; settings: reported data of vorinostat; ref Konsoula and Jung, 2008; cited from earlier work

SMILES: O=C(CCCCCCC(=O)Nc1nc2ccc(OC(F)(F)F)cc2s1)NO [Compound 1, N1-Hydroxy-N8-(6-(Trifluoromethoxy)benzo[d]thiazol-2-yl) Octanediamide]
T/C (relative increment ratio, tumor volume) (MDA-MB-231 xenograft; 21 consecutive days, nude mice): 55% | TGI (tumor growth inhibition, tumor weight) (MDA-MB-231 xenograft; 21 consecutive days, nude mice): 59% | mouse body weights (tolerability) (MDA-MB-231 xenograft; 21 days, Figure 6): high tolerability and low toxicity | IC50 (MCF-7): 2.74 ± 0.06 µM | IC50 (HDAC6): 0.012 ± 0.002 µM | IC50 (KG-1): 0.65 ± 0.02 µM | level of acetyl-histone H4 [1]: dramatically increase | level of acetyl-α-tubulin [1]: dramatically increase | effect on acetyl-α-tubulin compared with vorinostat ([1]; same concentration of 0.5 μM): superior to that of vorinostat | half-life [2]: 56 min | IC50 (HDAC2): 0.33 ± 0.04 µM | IC50 (SK-N-BE(2)): 0.29 ± 0.007 µM | IC50 (HEL): 0.14 ± 0.007 µM | IC50 (MOLT-4): 0.17 ± 0.007 µM | half-life [3]: > 120 min | IC50 [4]: 0.12 ± 0.01 µM | IC50 (MDA-MB-231): 0.77 ± 0.02 µM | IC50 ([5]; range over MDA-MB-231, MCF-7, PC-3, SK-N-BE(2), KG-1, MOLT-4, HEL, read-out: IC50 values across all tested human cancer cell lines): 0.14 to 2.74 µM | IC50 (HDAC8): 3.3 ± 0.2 µM | IC50 (PC-3): 2.52 ± 0.33 µM

IC50 (MDA-MB-231): > 10 µM | IC50 (PC-3): > 10 µM
SMILES: Nc1nc2ccc(OC(F)(F)F)cc2s1 [Riluzole, reference compound]
IC50 (KG-1): > 10 µM | IC50 (HEL): > 10 µM | inhibition at 10 µM ([5]; at 10 μM, tested tumor cell lines, read-out: growth inhibition): < 50%

SMILES: O=C(CCCCCCC(=O)Nc1ccccc1)NO [Vorinostat, suberoylanilide hydroxamic acid, reference compound]
level of acetyl-histone H4 [1]: dramatically increase | level of acetyl-α-tubulin [1]: dramatically increase | t1/2 Human plasma [6]: 75^b min
